± gives the expanded uncertainty stated by the source.

The conditions of data set [1]: 101 kPa, Liquid, Pycnometric method.
A short description of data set [2]: xn = mol fraction of the nth substance listed. As to conditions: 101 kPa, Liquid, Pycnometric method, x1 = 1.

What is called mass density is mass per unit of volume. Consider `CC#N` [acetonitrile], for which the mass density in data set [1] (293.15 K) is recorded as 782.12 ± 1 kg/m3; in data set [1] (298.15 K) it was 776.82 ± 1 kg/m3; in data set [1] (303.15 K) it was 771.52 ± 1 kg/m3; in data set [1] (308.15 K) it was 766.21 ± 1 kg/m3; in data set [1] (313.15 K) it was 760.9 ± 1 kg/m3; in data set [1] (318.15 K), 755.59 ± 1 kg/m3.
Take `CC#N` [acetonitrile] + C=CC(=O)OC(C)(C)C: the mass density in data set [2] (293.15 K) is on record as 782.12 ± 1 kg/m3; in data set [2] (298.15 K), 776.82 ± 1 kg/m3; in data set [2] (303.15 K), 771.52 ± 1 kg/m3; in data set [2] (308.15 K), 766.21 ± 1 kg/m3; in data set [2] (313.15 K) it was 760.9 ± 1 kg/m3; in data set [2] (318.15 K) it was 755.59 ± 1 kg/m3.
In the case of `CC#N` [acetonitrile] + C=CC(=O)OC, the mass density in data set [2] (293.15 K) was determined as 782.12 ± 1 kg/m3; in data set [2] (298.15 K), 776.82 ± 1 kg/m3; in data set [2] (303.15 K), 771.52 ± 1 kg/m3; in data set [2] (308.15 K), 766.21 ± 1 kg/m3; in data set [2] (313.15 K), 760.9 ± 1 kg/m3; in data set [2] (318.15 K), 755.59 ± 1 kg/m3.
With `CC#N` [acetonitrile] + C=CC(=O)OCCCC, the mass density in data set [2] (293.15 K) amounted to 782.12 ± 1 kg/m3; in data set [2] (298.15 K), 776.82 ± 1 kg/m3; in data set [2] (303.15 K), 771.52 ± 1 kg/m3; in data set [2] (308.15 K), 766.21 ± 1 kg/m3; in data set [2] (313.15 K) it was 760.9 ± 1 kg/m3; in data set [2] (318.15 K) it was 755.59 ± 1 kg/m3.
In the case of `C=CC(=O)OC(C)(C)C` [tert-butyl acrylate], the mass density in data set [1] (293.15 K) is 884.13 ± 1 kg/m3; in data set [1] (298.15 K), 879.66 ± 1 kg/m3; in data set [1] (303.15 K), 875.2 ± 1 kg/m3; in data set [1] (308.15 K), 870.74 ± 1 kg/m3; in data set [1] (313.15 K), 866.28 ± 1 kg/m3; in data set [1] (318.15 K), 861.82 ± 1 kg/m3.
For the compound `CC#N` [acetonitrile] + C=CC(=O)OCC, the mass density in data set [2] (293.15 K) amounted to 782.12 ± 1 kg/m3; in data set [2] (298.15 K), 776.82 ± 1 kg/m3; in data set [2] (303.15 K), 771.52 ± 1 kg/m3; in data set [2] (308.15 K), 766.21 ± 1 kg/m3; in data set [2] (313.15 K) it was 760.9 ± 1 kg/m3; in data set [2] (318.15 K), 755.59 ± 1 kg/m3.
